Assay results published in US8133905B2, “Biphenyl compounds useful as muscarinic receptor antagonists” (Theravance, Inc., priority 2005, dated 2012).
Where a name gives a salt, the structure may show the parent alone.

Assay: Dynamic moisture sorption (DMS) assessment
Format: physicochemical
Conditions: exposed to up to 90% RH
Procedure: A dynamic moisture sorption (DMS) assessment (also known as a moisture sorption-desorption profile) was performed for samples of the crystalline diacetate salt using a VTI atmospheric microbalance, SGA-100 system (VTI Corp., Hialeah, Fla. 33016). A sample size of approximately 10 mg was used and the humidity was set at the ambient value at the start of the analysis. A typical DMS analysis consisted of three scans: ambient to 2% relative humidity (RH), 2% RH to 90% RH, 90% RH to 5% RH at a scan rate of 5% RH/step. The mass was measured every two minutes and the RH was changed to the next value (+/−5% RH) when the mass of the sample was stable to within 0.01% for 5 consecutive points.

| SMILES | weight gain in DMS trace (reversible sorption/desorption profile) |
| --- | --- |
| CN(CCN1CCC(OC(=O)Nc2ccccc2-c2ccccc2)CC1)C(=O)c1cccc(C(=O)NCCNCc2ccc(O)cc2)c1 [crystalline diacetate salt, biphenyl-2-ylcarbamic acid 1-[2-({3-[2-(4-hydroxybenzylamino)ethylcarbamoyl]benzoyl}methylamino)ethyl]piperidin-4-yl ester] | less than 18% |
| CN(CCN1CCC(OC(=O)Nc2ccccc2-c2ccccc2)CC1)C(=O)c1cccc(C(=O)NCCNCc2ccc(O)cc2)c1 [crystalline dipropionate salt, Biphenyl-2-ylcarbamic Acid 1-[2-({3-[2-(4-Hydroxybenzylamino)ethylcarbamoyl]benzoyl}methylamino)ethyl]piperidin-4-yl Ester] | less than 11% |
| CN(CCN1CCC(OC(=O)Nc2ccccc2-c2ccccc2)CC1)C(=O)c1cccc(C(=O)NCCNCc2ccc(O)cc2)c1 [crystalline monooxalate salt, Biphenyl-2-ylcarbamic Acid 1-[2-({3-[2-(4-Hydroxybenzylamino)ethylcarbamoyl]benzoyl}methylamino)ethyl]piperidin-4-yl Ester] | less than 14% |
